Test: xn = mol fraction of the nth substance listed
Conditions: for speed of sound: 100 kPa, Frequency=3 MHz, Sing-around technique in a fixed-path interferometer; for speed of sound / viscosity / mass density: Liquid; for viscosity / mass density: 102 kPa; for viscosity: Concentric cylinders viscometry; for mass density: Vibrating tube method; for surface tension liquid-gas: 294.5 K, Pendant drop shape

CCCCc1ccccc1 [butylbenzene] + CCCCCCCCCCCCCCCC
Conditions	mass density [kg/m3]	speed of sound [m/s]	viscosity [mPa·s]
293.15 K, x1 = 0.1586	780.89	1353.2	2.92
293.15 K, x1 = 0.2971	788.51	1350.1	2.5
293.15 K, x1 = 0.4067	795.49	1347.8	2.21
293.15 K, x1 = 0.5293	804.56	1346	1.91
293.15 K, x1 = 0.6278	813.07	1345	1.69
293.15 K, x1 = 0.7158	821.75	1345.1	1.52
293.15 K, x1 = 0.7981	831.1	1346.3	1.36
293.15 K, x1 = 0.8709	840.48	1347.8	1.23
293.15 K, x1 = 0.938	850.32	1350.4	1.12
293.15 K, x1 = 1	860.51	1353.7	1.05
303.15 K, x1 = 0.1586	773.89	1316.1	2.35
303.15 K, x1 = 0.2971	781.43	1313	2.05
303.15 K, x1 = 0.4067	788.33	1310.7	1.83
303.15 K, x1 = 0.5293	797.29	1308.8	1.6
303.15 K, x1 = 0.6278	805.7	1307.7	1.43
303.15 K, x1 = 0.7158	814.27	1307.6	1.29
303.15 K, x1 = 0.7981	823.49	1308.5	1.17
303.15 K, x1 = 0.8709	832.73	1309.7	1.06
303.15 K, x1 = 0.938	842.44	1312	0.976
303.15 K, x1 = 1	852.49	1314.9	0.91
313.15 K, x1 = 0.1586	766.88	1279.5	1.94
313.15 K, x1 = 0.2971	774.34	1276.4	1.71
313.15 K, x1 = 0.4067	781.16	1274.1	1.54
313.15 K, x1 = 0.5293	790	1272.1	1.36
313.15 K, x1 = 0.6278	798.3	1270.8	1.23
313.15 K, x1 = 0.7158	806.75	1270.5	1.11
313.15 K, x1 = 0.7981	815.84	1271.1	1.01
313.15 K, x1 = 0.8709	824.96	1272.1	0.932
313.15 K, x1 = 0.938	834.53	1274	0.859
313.15 K, x1 = 1	844.43	1276.6	0.801
323.15 K, x1 = 0.1586	759.88	1243.6	1.62
323.15 K, x1 = 0.2971	767.24	1240.4	1.44
323.15 K, x1 = 0.4067	773.97	1238	1.31
323.15 K, x1 = 0.5293	782.69	1235.9	1.17
323.15 K, x1 = 0.6278	790.88	1234.4	1.06
323.15 K, x1 = 0.7158	799.21	1233.9	0.972
323.15 K, x1 = 0.7981	808.17	1234.3	0.891
323.15 K, x1 = 0.8709	817.16	1235	0.822
323.15 K, x1 = 0.938	826.58	1236.6	0.761
323.15 K, x1 = 1	836.34	1238.7	0.713
333.15 K, x1 = 0.1586	752.86	1208.2	1.37
333.15 K, x1 = 0.2971	760.13	1204.9	1.24
333.15 K, x1 = 0.4067	766.76	1202.5	1.13
333.15 K, x1 = 0.5293	775.36	1200.2	1.02
333.15 K, x1 = 0.6278	783.43	1198.6	0.929
333.15 K, x1 = 0.7158	791.64	1197.8	0.856
333.15 K, x1 = 0.7981	800.47	1197.9	0.787
333.15 K, x1 = 0.8709	809.32	1198.3	0.731
333.15 K, x1 = 0.938	818.61	1199.6	0.68
333.15 K, x1 = 1	828.21	1201.4	0.636
343.15 K, x1 = 0.1586	745.8	–	1.18
343.15 K, x1 = 0.2971	752.9	–	1.07
343.15 K, x1 = 0.4067	759.5	–	0.986
343.15 K, x1 = 0.5293	767.9	–	0.893
343.15 K, x1 = 0.6278	775.9	–	0.821
343.15 K, x1 = 0.7158	783.9	–	0.757
343.15 K, x1 = 0.7981	792.7	–	0.702
343.15 K, x1 = 0.8709	801.4	–	0.653
343.15 K, x1 = 0.938	810.6	–	0.61
343.15 K, x1 = 1	819.9	–	0.571
353.15 K, x1 = 0.1586	738.8	–	1.03
353.15 K, x1 = 0.2971	745.8	–	0.939
353.15 K, x1 = 0.4067	752.3	–	0.868
353.15 K, x1 = 0.5293	760.5	–	0.792
353.15 K, x1 = 0.6278	768.4	–	0.731
353.15 K, x1 = 0.7158	776.2	–	0.677
353.15 K, x1 = 0.7981	784.9	–	0.63
353.15 K, x1 = 0.8709	793.5	–	0.588
353.15 K, x1 = 0.938	802.5	–	0.55
353.15 K, x1 = 1	811.7	–	0.516
363.15 K, x1 = 0.1586	731.6	–	0.91
363.15 K, x1 = 0.2971	738.6	–	0.833
363.15 K, x1 = 0.4067	744.9	–	0.773
363.15 K, x1 = 0.5293	753.1	–	0.708
363.15 K, x1 = 0.6278	760.8	–	0.656
363.15 K, x1 = 0.7158	768.5	–	0.61
363.15 K, x1 = 0.7981	777.1	–	0.569
363.15 K, x1 = 0.8709	785.4	–	0.532
363.15 K, x1 = 0.938	794.3	–	0.5
363.15 K, x1 = 1	803.4	–	0.469
373.15 K, x1 = 0.1586	724.5	–	0.811
373.15 K, x1 = 0.2971	731.3	–	0.746
373.15 K, x1 = 0.4067	737.5	–	0.695
373.15 K, x1 = 0.5293	745.5	–	0.639
373.15 K, x1 = 0.6278	753.1	–	0.594
373.15 K, x1 = 0.7158	760.8	–	0.553
373.15 K, x1 = 0.7981	769.1	–	0.517
373.15 K, x1 = 0.8709	777.5	–	0.484
373.15 K, x1 = 0.938	786.1	–	0.456
373.15 K, x1 = 1	795	–	0.43

Conditions	surface tension liquid-gas [mN/m]
x1 = 0.1586	27.5
x1 = 0.2971	27.3
x1 = 0.4067	27.6
x1 = 0.5293	27.8
x1 = 0.6278	27.9
x1 = 0.7158	28
x1 = 0.7981	28.2
x1 = 0.8709	28.4
x1 = 0.938	28.7
